Laboratory results as given in the supplement of paper PMC8149375.
One block for each compound: values may come before it.

Tests used:
Details in all cases: treatment: drug alone; 5 days
[1] = tested on: UO-31; assay: minimum viability across doses, drug alone, relative to DMSO (fraction); higher = less growth inhibition
Protocol: (§1)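 Primary HTS: 8 RCC cell lines treated with 8 doses (up to 10 uM) of each library drug alone for 5 days; viability read by CellTiter-Glo and normalised to DMSO. GI50 was fitted with XLfit (4-parameter), AUC is the area under the dose-response curve, and minimum viability is the lowest fraction of DMSO viability across doses.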

[2] = tested on: SN12C; assay: as above
Protocol: as §1

[3] = tested on: CAKI-1; assay: as above
Protocol: as §1

[4] = tested on: 769-P; assay: as above
Protocol: as §1

[5] = tested on: 786-O; assay: as above
Protocol: as §1

[6] = tested on: A498; assay: as above
Protocol: as §1

[7] = tested on: ACHN; assay: as above
Protocol: as §1

[8] = tested on: TK-10; assay: as above
Protocol: as §1

[9] = tested on: UO-31; assay: GI50, drug alone; higher = less potent
Protocol: as §1

[10] = tested on: SN12C; assay: GI50, drug alone; higher = less potent
Protocol: as §1

[11] = tested on: CAKI-1; assay: GI50, drug alone; higher = less potent
Protocol: as §1

[12] = tested on: 769-P; assay: GI50, drug alone; higher = less potent
Protocol: as §1

[13] = tested on: 786-O; assay: GI50, drug alone; higher = less potent
Protocol: as §1

[14] = tested on: A498; assay: GI50, drug alone; higher = less potent
Protocol: as §1

[15] = tested on: ACHN; assay: GI50, drug alone; higher = less potent
Protocol: as §1

[16] = tested on: TK-10; assay: GI50, drug alone; higher = less potent
Protocol: as §1

[17] = tested on: UO-31; assay: AUC of dose-response viability curve, drug alone (arbitrary (AUC of normalised viability)); higher = less growth inhibition
Protocol: as §1

[18] = tested on: SN12C; assay: as above
Protocol: as §1

[19] = tested on: CAKI-1; assay: as above
Protocol: as §1

[20] = tested on: 769-P; assay: as above
Protocol: as §1

[21] = tested on: 786-O; assay: as above
Protocol: as §1

[22] = tested on: A498; assay: as above
Protocol: as §1

[23] = tested on: ACHN; assay: as above
Protocol: as §1

[24] = tested on: TK-10; assay: as above
Protocol: as §1

- GI50, drug alone [13]: > 10000 nM
- GI50, drug alone [15]: > 10000 nM
SMILES: CC[C@H](Nc1ncnc2[nH]cnc12)c1nc2cccc(F)c2c(=O)n1-c1ccccc1 [CAL-101 (GS-1101)]
- minimum viability across doses [1]: 0.926
- minimum viability across doses [2]: 0.777
- minimum viability across doses [3]: 0.633
- minimum viability across doses [4]: 0.786
- minimum viability across doses [5]: 0.613
- minimum viability across doses [6]: 0.979
- minimum viability across doses [7]: 0.64
- minimum viability across doses [8]: 0.701
- GI50, drug alone [9]: > 10000 nM
- GI50, drug alone [10]: > 10000 nM
- GI50, drug alone [11]: > 10000 nM
- GI50, drug alone [12]: > 10000 nM
- GI50, drug alone [14]: > 10000 nM
- GI50, drug alone [16]: > 10000 nM
- AUC of dose-response viability curve [17]: 3.87
- AUC of dose-response viability curve [18]: 3.2
- AUC of dose-response viability curve [19]: 3.06
- AUC of dose-response viability curve [20]: 3.45
- AUC of dose-response viability curve [21]: 3.15
- AUC of dose-response viability curve [22]: 4.09
- AUC of dose-response viability curve [23]: 3.17
- AUC of dose-response viability curve [24]: 3.12

SMILES: O=c1[nH]c2ccc(Cl)cc2c(N[C@@H]2CN3CCC2CC3)c1-c1nc2ccccc2[nH]1 [CHIR-124]
- minimum viability across doses [1]: 0.0103
- minimum viability across doses [2]: 0.0133
- minimum viability across doses [3]: 0.0814
- minimum viability across doses [4]: 0.017
- minimum viability across doses [5]: 0.0053
- minimum viability across doses [6]: 0.0252
- minimum viability across doses [7]: 0.0184
- minimum viability across doses [8]: 0.168
- GI50, drug alone [9]: 83.2 nM
- GI50, drug alone [10]: 1190 nM
- GI50, drug alone [11]: 165 nM
- GI50, drug alone [12]: 129 nM
- GI50, drug alone [13]: 36.5 nM
- GI50, drug alone [14]: 498 nM
- GI50, drug alone [15]: 40.3 nM
- GI50, drug alone [16]: 129 nM
- AUC of dose-response viability curve [17]: 1.4
- AUC of dose-response viability curve [18]: 2.32
- AUC of dose-response viability curve [19]: 1.73
- AUC of dose-response viability curve [20]: 1.61
- AUC of dose-response viability curve [21]: 0.832
- AUC of dose-response viability curve [22]: 2.43
- AUC of dose-response viability curve [23]: 1.15
- AUC of dose-response viability curve [24]: 1.68

- GI50, drug alone [13]: > 10000 nM
- GI50, drug alone [15]: 532 nM
SMILES: C=CC(=O)Nc1cc2c(Nc3ccc(F)c(Cl)c3)ncnc2cc1OCCCN1CCOCC1 [CI-1033 (Canertinib)]
- minimum viability across doses [1]: 0.557
- minimum viability across doses [2]: 0.104
- minimum viability across doses [3]: 0.382
- minimum viability across doses [4]: 0.344
- minimum viability across doses [5]: 0.487
- minimum viability across doses [6]: 0.141
- minimum viability across doses [7]: 0.158
- minimum viability across doses [8]: 0.156
- GI50, drug alone [9]: > 10000 nM
- GI50, drug alone [10]: 5220 nM
- GI50, drug alone [11]: 5530 nM
- GI50, drug alone [12]: 1000 nM
- GI50, drug alone [14]: 8550 nM
- GI50, drug alone [16]: 626 nM
- AUC of dose-response viability curve [17]: 3.48
- AUC of dose-response viability curve [18]: 2.52
- AUC of dose-response viability curve [19]: 2.8
- AUC of dose-response viability curve [20]: 2.24
- AUC of dose-response viability curve [21]: 2.52
- AUC of dose-response viability curve [22]: 3.62
- AUC of dose-response viability curve [23]: 2.09
- AUC of dose-response viability curve [24]: 2.11

- GI50, drug alone [13]: 727 nM
- GI50, drug alone [15]: 975 nM
SMILES: Cc1nc(N)sc1-c1ccnc(Nc2ccc(N3CCOCC3)cc2)n1 [CYC116]
- minimum viability across doses [1]: 0.00864
- minimum viability across doses [2]: 0.207
- minimum viability across doses [3]: 0.027
- minimum viability across doses [4]: 0.137
- minimum viability across doses [5]: 0.00272
- minimum viability across doses [6]: 0.287
- minimum viability across doses [7]: 0.107
- minimum viability across doses [8]: 0.152
- GI50, drug alone [9]: 8170 nM
- GI50, drug alone [10]: 3210 nM
- GI50, drug alone [11]: 693 nM
- GI50, drug alone [12]: 2990 nM
- GI50, drug alone [14]: 7870 nM
- GI50, drug alone [16]: 1890 nM
- AUC of dose-response viability curve [17]: 3.6
- AUC of dose-response viability curve [18]: 2.72
- AUC of dose-response viability curve [19]: 2.23
- AUC of dose-response viability curve [20]: 2.86
- AUC of dose-response viability curve [21]: 1.88
- AUC of dose-response viability curve [22]: 3.68
- AUC of dose-response viability curve [23]: 2.45
- AUC of dose-response viability curve [24]: 2.31

- GI50, drug alone [13]: 2600 nM
- GI50, drug alone [15]: 969 nM
SMILES: COc1cc2c(Oc3ccc4[nH]c(C)cc4c3F)ncnc2cc1OCCCN1CCCC1 [Cediranib (AZD2171)]
- minimum viability across doses [1]: 0.0213
- minimum viability across doses [2]: 0.248
- minimum viability across doses [3]: 0.0807
- minimum viability across doses [4]: 0.293
- minimum viability across doses [5]: 0.129
- minimum viability across doses [6]: 0.17
- minimum viability across doses [7]: 0.0987
- minimum viability across doses [8]: 0.0469
- GI50, drug alone [9]: 2980 nM
- GI50, drug alone [10]: 2870 nM
- GI50, drug alone [11]: 740 nM
- GI50, drug alone [12]: 5430 nM
- GI50, drug alone [14]: 5360 nM
- GI50, drug alone [16]: 2290 nM
- AUC of dose-response viability curve [17]: 2.76
- AUC of dose-response viability curve [18]: 2.55
- AUC of dose-response viability curve [19]: 2.35
- AUC of dose-response viability curve [20]: 2.94
- AUC of dose-response viability curve [21]: 2.5
- AUC of dose-response viability curve [22]: 3.15
- AUC of dose-response viability curve [23]: 2.5
- AUC of dose-response viability curve [24]: 2.62

- GI50, drug alone [13]: 941 nM
- GI50, drug alone [15]: 1980 nM
SMILES: N#CCNC(=O)c1ccc(-c2ccnc(Nc3ccc(N4CCOCC4)cc3)n2)cc1 [Cyt387]
- minimum viability across doses [1]: 0.0114
- minimum viability across doses [2]: 0.434
- minimum viability across doses [3]: 0.0592
- minimum viability across doses [4]: 0.29
- minimum viability across doses [5]: 0.00487
- minimum viability across doses [6]: 0.868
- minimum viability across doses [7]: 0.0637
- minimum viability across doses [8]: 0.152
- GI50, drug alone [9]: 4280 nM
- GI50, drug alone [10]: 8320 nM
- GI50, drug alone [11]: 1420 nM
- GI50, drug alone [12]: 6390 nM
- GI50, drug alone [14]: > 10000 nM
- GI50, drug alone [16]: 2700 nM
- AUC of dose-response viability curve [17]: 3.36
- AUC of dose-response viability curve [18]: 3.06
- AUC of dose-response viability curve [19]: 2.51
- AUC of dose-response viability curve [20]: 3.08
- AUC of dose-response viability curve [21]: 2.19
- AUC of dose-response viability curve [22]: 4.74
- AUC of dose-response viability curve [23]: 2.82
- AUC of dose-response viability curve [24]: 2.6

- GI50, drug alone [13]: 3760 nM
- GI50, drug alone [15]: 1790 nM
SMILES: CNC(=O)c1cc(Oc2ccc(NC(=O)Nc3cc(C(C)(C)C)nn3-c3ccc4ncccc4c3)c(F)c2)ccn1 [DCC-2036 (Rebastinib)]
- minimum viability across doses [1]: 0.00743
- minimum viability across doses [2]: 0.0299
- minimum viability across doses [3]: 0.104
- minimum viability across doses [4]: 0.752
- minimum viability across doses [5]: 0.359
- minimum viability across doses [6]: 0.0163
- minimum viability across doses [7]: 0.0439
- minimum viability across doses [8]: 0.0459
- GI50, drug alone [9]: 1720 nM
- GI50, drug alone [10]: 2920 nM
- GI50, drug alone [11]: 1250 nM
- GI50, drug alone [12]: > 10000 nM
- GI50, drug alone [14]: 7590 nM
- GI50, drug alone [16]: 2140 nM
- AUC of dose-response viability curve [17]: 4.08
- AUC of dose-response viability curve [18]: 2.95
- AUC of dose-response viability curve [19]: 2.63
- AUC of dose-response viability curve [20]: 3.43
- AUC of dose-response viability curve [21]: 2.8
- AUC of dose-response viability curve [22]: 3.2
- AUC of dose-response viability curve [23]: 2.92
- AUC of dose-response viability curve [24]: 2.94

- GI50, drug alone [13]: 6950 nM
- GI50, drug alone [15]: 510 nM
SMILES: CN1CCN(c2ccc3nc(-c4c(N)c5c(F)cccc5[nH]c4=O)[nH]c3c2)CC1 [Dovitinib (TKI-258)]
- minimum viability across doses [1]: 0.207
- minimum viability across doses [2]: 0.079
- minimum viability across doses [3]: 0.13
- minimum viability across doses [4]: 0.0627
- minimum viability across doses [5]: 0.395
- minimum viability across doses [6]: 0.351
- minimum viability across doses [7]: 0.116
- minimum viability across doses [8]: 0.252
- GI50, drug alone [9]: 3540 nM
- GI50, drug alone [10]: 956 nM
- GI50, drug alone [11]: 451 nM
- GI50, drug alone [12]: 2560 nM
- GI50, drug alone [14]: 6940 nM
- GI50, drug alone [16]: 2260 nM
- AUC of dose-response viability curve [17]: 3.69
- AUC of dose-response viability curve [18]: 2.36
- AUC of dose-response viability curve [19]: 2.18
- AUC of dose-response viability curve [20]: 2.64
- AUC of dose-response viability curve [21]: 3.27
- AUC of dose-response viability curve [22]: 3.15
- AUC of dose-response viability curve [23]: 2.18
- AUC of dose-response viability curve [24]: 2.5
